Experimental data published in the supplement of paper PMC11061612.

Key:
[1] = compound: CC(=O)Nc1cccc(-n2c(=O)n(C3CC3)c(=O)c3c(Nc4ccc(I)cc4F)n(C)c(=O)c(C)c32)c1 [Trametinib]; details: max 1 µM
Method in brief: (§1)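 Viability was measured with CellTiter-Glo 2.0 luminescence after 72 hours of dosing at a final DMSO of typically 0.2%, and scaled between blank-well and DMSO-well means. Beforehand, cancer cell lines sat 24 hours at 37°C and 5% CO2 in 1536-well plates in 7.5 μl DMEM/F12 or RPMI with 10% FBS. A non-linear mixed effects model fitted two-parameter logistic curves to the dose responses. The single-agent IC50 comes from these fits.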

[2] = compound: CC(C)n1c(=O)n(C)c2cnc3cc(F)c(-c4ccc(OCCCN5CCCCC5)nc4)cc3c21 [AZD1390]; details: max 0.3 µM
Method in brief: as §1

[3] = compound: COc1nnc2ccc(N3CCC(c4ccc(OCCN5CCN(C)C(=O)[C@H]5C)cc4)CC3)nn12 [AZD5153]; details: max 1 µM
Method in brief: as §1

[4] = compound: CC1=CN2[C@@H](C1)C=NC3=CC(=C(C=C3C2=O)OC)OCCCCCOC4=C(C=C5C(=C4)N=C[C@@H]6CC(=CN6C5=O)C)OC [SG3199]; details: max 0.001 µM
Method in brief: as §1

[5] = compound: COc1cc2ncnc(Nc3ccc(F)c(Cl)c3)c2cc1OCCCN1CCOCC1 [Gefitinib]; details: max 10 µM
Method in brief: as §1

[6] = compound: C[C@@H](Nc1cc(F)cc(F)c1)c1cc(C(=O)N(C)C)cc2c(=O)cc(N3CCOCC3)oc12 [AZD8186]; details: max 3 µM
Method in brief: as §1

[7] = compound: CN(C)CCCOc1ccc(-c2ccc3ncc4c(c3c2)n(C2CCOCC2)c(=O)n4C)cn1 [AZD0156]; details: max 3 µM
Method in brief: as §1

[8] = compound: C1CN(CCC1(C(=O)N[C@@H](CCO)C2=CC=C(C=C2)Cl)N)C3=NC=NC4=C3C=CN4 [Capivasertib]; details: max 10 µM
Method in brief: as §1

[9] = compound: C[C@@H](Oc1cc(-c2cnn(C3CCNCC3)c2)cnc1N)c1c(Cl)ccc(F)c1Cl [Crizotinib]; details: max 10 µM
Method in brief: as §1

[10] = compound: CS(=O)(=O)CCNCc1ccc(-c2ccc3ncnc(Nc4ccc(OCc5cccc(F)c5)c(Cl)c4)c3c2)o1 [Lapatinib]; details: max 10 µM
Method in brief: as §1

[11] = compound: CC1=C(C(=CC=C1)Cl)NC(=O)C2=CN=C(S2)NC3=CC(=NC(=N3)C)N4CCN(CC4)CCO [Dasatinib]; details: max 2 µM
Method in brief: as §1

[12] = compound: COc1cccc2c1C(=O)c1c(O)c3c(c(O)c1C2=O)C[C@@](O)(C(=O)CO)C[C@@H]3O[C@H]1C[C@H](N)[C@H](O)[C@H](C)O1 [Doxorubicin]; details: max 1 µM
Method in brief: as §1

[13] = compound: CCN(CCO)CCCOc1ccc2c(Nc3cc(CC(=O)Nc4cccc(F)c4)[nH]n3)ncnc2c1 [AZD2811]; details: max 1 µM
Method in brief: as §1

[14] = compound: Cc1c2c(nn1C)CSCc1cc(n(C)n1)CSc1cc(c3ccccc3c1)OCCCc1c(C(=O)O)n(C)c3c-2c(Cl)ccc13 [AZD5991]; details: max 1 µM
Method in brief: as §1

[15] = compound: CN(CC[C@H](CSC1=CC=CC=C1)NC2=C(C=C(C=C2)S(=O)(=O)NC(=O)C3=CC=C(C=C3)N4CCC(CC4)[C@H](C5=CC=CC=C5C6=CC=C(C=C6)Cl)O)S(=O)(=O)C(F)(F)F)CCO [AZD4320]; details: max 1 µM
Method in brief: as §1

[16] = compound: C[C@@H](c1ccc2nccn2c1)n1nnc2ncc(-c3cnn(C)c3)nc21 [Savolitinib]; details: max 1 µM
Method in brief: as §1

[17] = compound: O=C(c1cc(Cc2n[nH]c(=O)c3ccccc23)ccc1F)N1CCN(C(=O)C2CC2)CC1 [Olaparib]; details: max 10 µM
Method in brief: as §1

[18] = compound: COc1cccc(OCCCN)c1-c1cc(Nc2cnc(C#N)cn2)n[nH]1 [Prexasertib]; details: max 1 µM
Method in brief: as §1

[19] = compound: CC(=O)c1c(C)c2cnc(Nc3ccc(N4CCNCC4)cn3)nc2n(C2CCCC2)c1=O [Palbociclib]; details: max 10 µM
Method in brief: as §1

[20] = compound: Cc1nc(-c2cn3c(n2)-c2ccc(-c4cnn(C(C)(C)C(N)=O)c4)cc2OCC3)n(C(C)C)n1 [Taselisib]; details: max 10 µM
Method in brief: as §1

[21] = compound: Cn1cnc2c(F)c(Nc3ccc(Br)cc3Cl)c(C(=O)NOCCO)cc21 [Selumetinib]; details: max 10 µM
Method in brief: as §1

[22] = compound: CCc1c2c(nc3ccc(O)cc13)-c1cc3c(c(=O)n1C2)COC(=O)[C@]3(O)CC [SN-38]; details: max 0.3 µM
Method in brief: as §1

[23] = compound: COc1cc(Nc2ncc3c(n2)-c2ccc(Cl)cc2C(c2c(F)cccc2OC)=NC3)ccc1C(=O)O [Alisertib]; details: max 10 µM
Method in brief: as §1

[24] = compound: C=CCn1c(=O)c2cnc(Nc3ccc(N4CCN(C)CC4)cc3)nc2n1-c1cccc(C(C)(C)O)n1 [AZD1775]; details: max 3 µM
Method in brief: as §1

[25] = compound: Cc1cc2ncnn2cc1Nc1ncc2c(n1)n(C1CCOCC1)c(=O)n2C [AZD7648]; details: max 10 µM
Method in brief: as §1

[26] = compound: C[C@@H]1COCCN1C2=NC(=NC(=C2)C3(CC3)[S@](=N)(=O)C)C4=C5C=CNC5=NC=C4 [AZD6738]; details: max 10 µM
Method in brief: as §1

[27] = compound: CC1(C)CCC(CN2CCN(c3ccc(C(=O)NS(=O)(=O)c4ccc(NCC5CCOCC5)c([N+](=O)[O-])c4)c(Oc4cnc5[nH]ccc5c4)c3)CC2)=C(c2ccc(Cl)cc2)C1 [Venetoclax]; details: max 1 µM
Method in brief: as §1

Cell Line	IC50, cell viability 72 h [1]	IC50, cell viability 72 h [2]	IC50, cell viability 72 h [3]	IC50, cell viability 72 h [4]	IC50, cell viability 72 h [5]	IC50, cell viability 72 h [6]	IC50, cell viability 72 h [7]	IC50, cell viability 72 h [8]	IC50, cell viability 72 h [9]	IC50, cell viability 72 h [10]	IC50, cell viability 72 h [11]	IC50, cell viability 72 h [12]	IC50, cell viability 72 h [13]	IC50, cell viability 72 h [14]	IC50, cell viability 72 h [15]	IC50, cell viability 72 h [16]	IC50, cell viability 72 h [17]	IC50, cell viability 72 h [18]	IC50, cell viability 72 h [19]	IC50, cell viability 72 h [20]	IC50, cell viability 72 h [21]	IC50, cell viability 72 h [22]	IC50, cell viability 72 h [23]	IC50, cell viability 72 h [24]	IC50, cell viability 72 h [25]	IC50, cell viability 72 h [26]	IC50, cell viability 72 h [27]
CHP-212 (Neuroblastoma)	< 0.001 µM	> 0.3 µM	0.0592 µM	> 0.001 µM	> 10 µM	> 3 µM	> 3 µM	> 10 µM	2.07 µM	> 10 µM	0.0596 µM	0.254 µM	0.169 µM	0.257 µM	> 1 µM	> 1 µM	> 10 µM	0.0515 µM	3.36 µM	1.08 µM	0.012 µM	0.0175 µM	0.0643 µM	0.221 µM	> 10 µM	1.83 µM	> 1 µM
COLO-678 (Colorectal Carcinoma)	0.264 µM	> 0.3 µM	> 1 µM	> 0.001 µM	> 10 µM	> 3 µM	> 3 µM	> 10 µM	> 10 µM	> 10 µM	> 2 µM	> 1 µM	> 1 µM	> 1 µM	> 1 µM	> 1 µM	> 10 µM	> 1 µM	> 10 µM	> 10 µM	3.44 µM	> 0.3 µM	> 10 µM	> 3 µM	> 10 µM	> 10 µM	> 1 µM
DiFi (Colorectal Carcinoma)	0.0428 µM	> 0.3 µM	0.403 µM	> 0.001 µM	0.0524 µM	> 3 µM	> 3 µM	> 10 µM	> 10 µM	0.315 µM	> 2 µM	0.961 µM	0.595 µM	> 1 µM	> 1 µM	> 1 µM	> 10 µM	0.0167 µM	> 10 µM	0.606 µM	7.26 µM	0.0333 µM	5.96 µM	1.42 µM	> 10 µM	3.53 µM	> 1 µM
EVSA-T (Breast Carcinoma)	> 1 µM	> 0.3 µM	0.0652 µM	> 0.001 µM	> 10 µM	0.199 µM	> 3 µM	0.289 µM	3.36 µM	4.49 µM	> 2 µM	> 1 µM	> 1 µM	0.0561 µM	> 1 µM	> 1 µM	> 10 µM	> 1 µM	> 10 µM	1.05 µM	> 10 µM	> 0.3 µM	6.35 µM	> 3 µM	> 10 µM	> 10 µM	> 1 µM
